Results published in US9073853B2, “Cycloalkane carboxylic acid derivatives as CXCR3 receptor antagonists” (Sanofi, priority 2011, dated 2015).
pIC50: −log10 of the molar value.

What follows are compounds tested against human CXCR3-A receptor (Homo sapiens (Human), UniProt P49682) (assay: 125I-CXCL10 competition radioligand binding assay). Settings: displacement of 125I-CXCL10 from membranes of CHO cells expressing human recombinant CXCR3-A.
Summary of the method: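 Membranes from a recombinant cell line expressing human CXCR3-A (10-20 μg protein) were incubated with 125I-CXCL10 and test compound for 60 min at 25° C, then filtered onto PEI-soaked GF/B filters and gamma-counted. IC50 and Hill slope came from four-parameter nonlinear fitting of competition curves.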

Chain of human CXCR3-A receptor (P49682 whole entry): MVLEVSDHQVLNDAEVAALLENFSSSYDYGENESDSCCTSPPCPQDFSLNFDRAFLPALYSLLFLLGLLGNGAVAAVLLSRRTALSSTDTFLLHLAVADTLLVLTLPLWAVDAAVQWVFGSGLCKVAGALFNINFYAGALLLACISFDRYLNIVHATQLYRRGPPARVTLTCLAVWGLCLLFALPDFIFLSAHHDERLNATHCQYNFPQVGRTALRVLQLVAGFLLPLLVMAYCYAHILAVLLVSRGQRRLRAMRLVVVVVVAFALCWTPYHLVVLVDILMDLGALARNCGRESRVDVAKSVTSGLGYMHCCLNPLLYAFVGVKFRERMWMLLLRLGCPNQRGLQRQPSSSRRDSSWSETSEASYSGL

| Structure (SMILES) | pIC50 |
| --- | --- |
| COc1cc(CN(C[C@H]2CC[C@H](C(=O)O)CC2)C(C)c2ccc(C#N)cc2)ccc1OCCn1c(=O)ccn(C)c1=O (stereo partly drawn) [Example 62, trans-4-[([1-(4-Cyano-phenyl)-ethyl]-{3-methoxy-4-[2-(3-methyl-2,6-dioxo-3,6-dihydro-2H-pyrimidin-1-yl)-ethoxy]-benzyl}-amino)-methyl]-cyclohexanecarboxylic acid] | 6.70 |
| CCC(c1ccc(Cl)cc1)N(Cc1ccc(OCCN2C(=O)CCC2=O)c(OC)c1)C[C@H]1CC[C@H](C(=O)O)CC1 (stereo partly drawn) [Example 63, trans-4-[([1-(4-Chloro-phenyl)-propyl]-{4-[2-(2,5-dioxo-pyrrolidin-1-yl)-ethoxy]-3-methoxy-benzyl}-amino)-methyl]-cyclohexanecarboxylic acid] | 7.21 |
| CCC(c1ccc(Cl)cc1)N(Cc1ccc(OCCn2c(=O)ccn(C)c2=O)c(C)c1)C[C@H]1CC[C@H](C(=O)O)CC1 (stereo partly drawn) [Example 64, trans-4-[([1-(4-Chloro-phenyl)-propyl]-{3-methyl-4-[2-(3-methyl-2,6-dioxo-3,6-dihydro-2H-pyrimidin-1-yl)-ethoxy]-benzyl}-amino)-methyl]-cyclohexanecarboxylic acid] | 6.31 |
| CCC(c1ccc(Cl)cc1)N(Cc1ccc(OCCN2C(=O)CCC2=O)c(C)c1)C[C@H]1CC[C@H](C(=O)O)CC1 (stereo partly drawn) [Example 65, trans-4-[([1-(4-Chloro-phenyl)-propyl]-{4-[2-(2,5-dioxo-pyrrolidin-1-yl)-ethoxy]-3-methyl-benzyl}-amino)-methyl]-cyclohexanecarboxylic acid] | 6.92 |
| CCC(c1ccc2c(c1)CCO2)N(Cc1ccc(CCCN2C(=O)CCC2=O)c(OC)c1)C[C@H]1CC[C@H](C(=O)O)CC1 (stereo partly drawn) [Example 66, trans-4-[([1-(2,3-Dihydro-benzofuran-5-yl)-propyl]-{4-[3-(2,5-dioxo-pyrrolidin-1-yl)-propyl]-3-methoxy-benzyl}-amino)-methyl]-cyclohexanecarboxylic acid] | 7.07 |
| CCC(c1ccc(Cl)cc1)N(Cc1ccc(OCCN2C(=O)CN(C)C2=O)c(OC)c1)C[C@H]1CC[C@H](C(=O)O)CC1 (stereo partly drawn) [Example 67, trans-4-[([1-(4-Chloro-phenyl)-propyl]-{3-methoxy-4-[2-(3-methyl-2,5-dioxo-imidazolidin-1-yl)-ethoxy]-benzyl}-amino)-methyl]-cyclohexanecarboxylic acid] | 7.11 |
| CCC(c1ccc(Cl)cc1)N(Cc1ccc(OCCn2c(=O)ccn(C)c2=O)c(OC)c1)C[C@H]1CC[C@H](C(=O)O)CC1 (stereo partly drawn) [Example 68, trans-4-[([1-(4-Chloro-phenyl)-propyl]-{3-methoxy-4-[2-(3-methyl-2,6-dioxo-3,6-dihydro-2H-pyrimidin-1-yl)-ethoxy]-benzyl}-amino)-methyl]-cyclohexanecarboxylic acid] | 6.84 |
| CCC(c1ccc2c(c1)CCO2)N(Cc1ccc(OCCN2C(=O)CCC2=O)c(C)c1)C[C@H]1CC[C@H](C(=O)O)CC1 (stereo partly drawn) [Example 69, trans-4-[([1-(2,3-Dihydro-benzofuran-5-yl)-propyl]-{4-[2-(2,5-dioxo-pyrrolidin-1-yl)-ethoxy]-3-methyl-benzyl}-amino)-methyl]-cyclohexanecarboxylic acid] | 7.25 |
| CCC(c1ccc(Cl)cc1)N(Cc1ccc(OCCN2C(=O)CN(C)C2=O)c(C)c1)C[C@H]1CC[C@H](C(=O)O)CC1 (stereo partly drawn) [Example 70, trans-4-[([1-(4-Chloro-phenyl)-propyl]-{3-methyl-4-[2-(3-methyl-2,5-dioxo-imidazolidin-1-yl)-ethoxy]-benzyl}-amino)-methyl]-cyclohexanecarboxylic acid] | 6.74 |
| CCc1cc(CN(C[C@H]2CC[C@H](C(=O)O)CC2)[C@H]2CCc3cc(Cl)ccc32)ccc1OCCN1C(=O)CCC1=O [Example 71, trans-4-[(((S)-5-Chloro-indan-1-yl)-{4-[2-(2,5-dioxo-pyrrolidin-1-yl)-ethoxy]-3-ethyl-benzyl}-amino)-methyl]-cyclohexanecarboxylic acid] | 6.75 |
| O=C1CCC(=O)N1CCOc1ccc(CN(C[C@H]2CC[C@H](C(=O)O)CC2)[C@H]2CCc3cc(Cl)ccc32)cc1F [Example 72, trans-4-[(((S)-5-Chloro-indan-1-yl)-{4-[2-(2,5-dioxo-pyrrolidin-1-yl)-ethoxy]-3-fluoro-benzyl}-amino)-methyl]-cyclohexanecarboxylic acid] | 6.08 |
| C[C@@H](c1ccc(Cl)cc1)N(Cc1ccc(OCCN2C(=O)CCC2=O)c(F)c1)C[C@H]1CC[C@H](C(=O)O)CC1 [Example 73, trans-4-[([(S)-1-(4-Chloro-phenyl)-ethyl]-{4-[2-(2,5-dioxo-pyrrolidin-1-yl)-ethoxy]-3-fluoro-benzyl}-amino)-methyl]-cyclohexanecarboxylic acid] | 6.81 |
| COc1cc(CN(C[C@H]2CC[C@H](C(=O)O)CC2)[C@H]2CCc3cc(Cl)c(Cl)cc32)ccc1OCCN1C(=O)CCC1=O [Example 74, trans-4-[(((S)-5,6-Dichloro-indan-1-yl)-{4-[2-(2,5-dioxo-pyrrolidin-1-yl)-ethoxy]-3-methoxy-benzyl}-amino)-methyl]-cyclohexanecarboxylic acid] | 6.46 |
| CCc1cc(CN(C[C@H]2CC[C@H](C(=O)O)CC2)[C@@H](C)c2ccc(Cl)cc2)ccc1OCCN1C(=O)CCC1=O [Example 75, trans-4-[([(S)-1-(4-Chloro-phenyl)-ethyl]-{4-[2-(2,5-dioxo-pyrrolidin-1-yl)-ethoxy]-3-ethyl-benzyl}-amino)-methyl]-cyclohexanecarboxylic acid] | 7.35 |
| CCc1cc(CN(C[C@H]2CC[C@H](C(=O)O)CC2)C(C)c2ccc3c(c2)CCO3)ccc1OCCN1C(=O)CCC1=O (stereo partly drawn) [Example 76, trans-4-[([1-(2,3-Dihydro-benzofuran-5-yl)-ethyl]-{4-[2-(2,5-dioxo-pyrrolidin-1-yl)-ethoxy]-3-ethyl-benzyl}-amino)-methyl]-cyclohexanecarboxylic acid] | 7.35 |
| COc1cc(CN(C[C@H]2CC[C@H](C(=O)O)CC2)C(C)c2ccc(Cl)c(Cl)c2)ccc1OCCN1C(=O)CCC1=O (stereo partly drawn) [Example 77, trans-4-[([1-(3,4-Dichloro-phenyl)-ethyl]-{4-[2-(2,5-dioxo-pyrrolidin-1-yl)-ethoxy]-3-methoxy-benzyl}-amino)-methyl]-cyclohexanecarboxylic acid] | 6.74 |
| Cc1cc(CN(C[C@H]2CC[C@H](C(=O)O)CC2)C(C)c2ccc(Cl)c(Cl)c2)ccc1OCCN1C(=O)CCC1=O (stereo partly drawn) [Example 78, trans-4-[([1-(3,4-Dichloro-phenyl)-ethyl]-{4-[2-(2,5-dioxo-pyrrolidin-1-yl)-ethoxy]-3-methyl-benzyl}-amino)-methyl]-cyclohexanecarboxylic acid] | 6.57 |
| C[C@@H](c1ccc(Cl)cc1)N(Cc1ccc(OCCN2C(=O)CCC2=O)cc1)C[C@H]1CC[C@H](C(=O)O)CC1 [Example 79, trans-4-[([(S)-1-(4-Chloro-phenyl)-ethyl]-{4-[2-(2,5-dioxo-pyrrolidin-1-yl)-ethoxy]-benzyl}-amino)-methyl]-cyclohexanecarboxylic acid] | 6.81 |
| CCc1ccc(C(C)N(Cc2ccc(OCCN3C(=O)CCC3=O)c(OC)c2)C[C@H]2CC[C@H](C(=O)O)CC2)cc1 (stereo partly drawn) [Example 81, trans-4-({{4-[2-(2,5-Dioxo-pyrrolidin-1-yl)-ethoxy]-3-methoxy-benzyl}-[1-(4-ethyl-phenyl)-ethyl]-amino}-methyl)-cyclohexanecarboxylic acid] | 6.61 |
| COc1cc(CN(C[C@H]2CC[C@H](C(=O)O)CC2)C(C)c2ccc(Cl)c(F)c2)ccc1OCCN1C(=O)CCC1=O (stereo partly drawn) [Example 82, trans-4-[([1-(4-Chloro-3-fluoro-phenyl)-ethyl]-{4-[2-(2,5-dioxo-pyrrolidin-1-yl)-ethoxy]-3-methoxy-benzyl}-amino)-methyl]-cyclohexanecarboxylic acid] | 7.34 |
| Cc1ccc(C(C)N(Cc2ccc(OCCN3C(=O)CCC3=O)c(C)c2)C[C@H]2CC[C@H](C(=O)O)CC2)cc1 (stereo partly drawn) [Example 83, trans-4-{[{4-[2-(2,5-Dioxo-pyrrolidin-1-yl)-ethoxy]-3-methyl-benzyl}-(1-p-tolyl-ethyl)-amino]-methyl}-cyclohexanecarboxylic acid] | 6.84 |
| COc1cc(CN(C[C@H]2CC[C@H](C(=O)O)CC2)C(C)c2ccc(C)cc2)ccc1OCCN1C(=O)CCC1=O (stereo partly drawn) [Example 84, trans-4-{[{4-[2-(2,5-Dioxo-pyrrolidin-1-yl)-ethoxy]-3-methoxy-benzyl}-(1-p-tolyl-ethyl)-amino]-methyl}-cyclohexanecarboxylic acid] | 6.97 |
| C[C@@H](c1ccc(Cl)cc1)N(Cc1ccc(OCCN2C(=O)CCC2=O)c(CO)c1)C[C@H]1CC[C@H](C(=O)O)CC1 [Example 85, trans-4-[([(S)-1-(4-Chloro-phenyl)-ethyl]-{4-[2-(2,5-dioxo-pyrrolidin-1-yl)-ethoxy]-3-hydroxymethyl-benzyl}-amino)-methyl]-cyclohexanecarboxylic acid] | 7.15 |
| CCc1cc(CN(C[C@H]2CC[C@H](C(=O)O)CC2)[C@H]2CCc3c2ccc(Cl)c3Cl)ccc1OCCN1C(=O)CCC1=O [Example 86, trans-4-[(((S)-4,5-Dichloro-indan-1-yl)-{4-[2-(2,5-dioxo-pyrrolidin-1-yl)-ethoxy]-3-ethyl-benzyl}-amino)-methyl]-cyclohexanecarboxylic acid] | 7.07 |
| COc1cc(CN(C[C@H]2CC[C@H](C(=O)O)CC2)[C@@H](C)c2ccc(Cl)cc2)ccc1SCCN1C(=O)CCC1=O [Example 87, trans-4-[([(S)-1-(4-Chloro-phenyl)-ethyl]-{4-[2-(2,5-dioxo-pyrrolidin-1-yl)-ethylsulfanyl]-3-methoxy-benzyl}-amino)-methyl]-cyclohexanecarboxylic acid] | 7.72 |
| COc1cc(CN(C[C@H]2CC[C@H](C(=O)O)CC2)[C@H]2CCc3cc(Cl)ccc32)ccc1SCCN1C(=O)CCC1=O [Example 88, trans-4-[(((S)-5-Chloro-indan-1-yl)-{4-[2-(2,5-dioxo-pyrrolidin-1-yl)-ethylsulfanyl]-3-methoxy-benzyl}-amino)-methyl]-cyclohexanecarboxylic acid] | 7.64 |
